22 compounds from patent US11254695B2, “Soluble C5aR antagonists” (CHEMOCENTRYX, INC., priority 2016, dated 2022) can be followed below.

Converted amounts (≈) assume the structure as drawn. Counter-ions that a name gives are not always drawn.

The term solubility denotes the dissolved amount per volume that the medium holds.

Holding throughout (format): physicochemical
Series [1] is described as follows: Solubility in Milli-Q water, examined with naked eye. As to conditions: thermodynamic from solid; arbitrary amount in 1 mL Milli-Q water, room temperature, clear solution by naked eye; not the maximum solubility; read-out: Solubility in H2O. An excerpt: Experiments with no visible particles by naked eye were considered as clear solutions. It is important to note that the reported solubility information is not the maximum solubility of the compounds in water.

Another series in a line: physchem. The following applies: 25 °C, pH 7, aqueous buffer, thermodynamic from solid. As to the method: Saturated solutions of compound in pH 7 buffers were left overnight at room temperature (25° C.) before they were centrifuged. The supernatants were taken out and quantified. Solubility: 0.053 μg/mL.
A short description of series [2]: Solubility of saturated solutions in D.I. water, quantified by LC-MS. The following applies: thermodynamic from solid, saturated solution in D.I. water, shaken 3 hours at room temperature, average of four replicates. The method, then:
Saturated solutions of compound were freshly prepared by adding 1 mL D.I. water into 0.8 mg compound powder. After shaking at room temperature for 3 hours, the samples were centrifuged under 14000 rpm for 15 minutes twice. The supernatants were carefully taken out and quantified by LC-MS. Solubility: 1.2±0.2 μg/mL (average of four replicates).

With `Cc1ccc(NC(=O)[C@H]2CCCN(C(=O)c3c(C)cccc3F)[C@H]2c2ccc(N(C3CCCC3)P(=O)(O)N[C@@H](Cc3c[nH]cn3)C(=O)O)cc2)cc1C(F)(F)F` [Example 3, 2-[[[N-cyclopentyl-4-[(2R,3S)-1-(2-fluoro-6-methyl-benzoyl)-3-[[4-methyl-3-(trifluoromethyl)phenyl]carbamoyl]-2-piperidyl]anilino]-hydroxy-phosphoryl]amino]-3-(1H-imidazol-4-yl)propanoic acid], the solubility in series [1] worked out at 5000 µg/mL (≈ 6.26 mM).

With `Cc1ccc(NC(=O)[C@H]2CCCN(C(=O)c3c(C)cccc3F)[C@H]2c2ccc(N(C(=O)OCOC(=O)/C=C/C(=O)O)C3CCCC3)cc2)cc1C(F)(F)F` [Example 10, (E)-4-[[cyclopentyl-[4-[(2R,3S)-1-(2-fluoro-6-methyl-benzoyl)-3-[[4-methyl-3-(trifluoromethyl)phenyl]carbamoyl]-2-piperidyl]phenyl]carbamoyl]oxymethoxy]-4-oxo-but-2-enoic acid], the solubility in series [1] was 1000 µg/mL (≈ 1.33 mM).

Take `Cc1ccc(NC(=O)[C@H]2CCCN(C(=O)c3c(C)cccc3F)[C@H]2c2ccc(N(C(=O)OCc3ccc(OP(=O)(O)O)cc3)C3CCCC3)cc2)cc1C(F)(F)F` [Example 8, (4-phosphonooxyphenyl)methyl N-cyclopentyl-N-[4-[(2R,3S)-1-(2-fluoro-6-methyl-benzoyl)-3-[[4-methyl-3-(trifluoromethyl)phenyl]carbamoyl]-2-piperidyl]phenyl]carbamate]: the solubility in series [1] stood at 1000 µg/mL (≈ 1.23 mM). On the same count and under the same terms, the same measure for `Cc1ccc(NC(=O)[C@H]2CCCN(C(=O)c3c(C)cccc3F)[C@H]2c2ccc(N(C(=O)OCOP(=O)(O)O)C3CCCC3)cc2)cc1C(F)(F)F` [Example 9, phosphonooxymethyl N-cyclopentyl-N-[4-[(2R,3S)-1-(2-fluoro-6-methyl-benzoyl)-3-[[4-methyl-3-(trifluoromethyl)phenyl]carbamoyl]-2-piperidyl]phenyl]carbamate]: more than 10000 µg/mL; for `Cc1cccc(F)c1C(=O)N1CCC[C@H](C(=O)Nc2ccc(COCOP(=O)(O)O)c(C(F)(F)F)c2)[C@@H]1c1ccc(NC2CCCC2)cc1` [Example 22, [4-[[(2R,3S)-2-[4-(cyclopentylamino)phenyl]-1-(2-fluoro-6-methyl-benzoyl)piperidine-3-carbonyl]amino]-2-(trifluoromethyl)phenyl]methoxymethyl dihydrogen phosphate]: 15000 µg/mL. On the same count and under the same terms, the same measure for `Cc1cccc(F)c1C(=O)N1CCC[C@H](C(=O)Nc2ccc(COC(=O)[C@@H](NC(=O)[C@@H](N)C(C)C)C(C)C)c(C(F)(F)F)c2)[C@@H]1c1ccc(NC2CCCC2)cc1` [Example 16, [4-[[(2R,3S)-2-[4-(cyclopentylamino)phenyl]-1-(2-fluoro-6-methyl-benzoyl)piperidine-3-carbonyl]amino]-2-(trifluoromethyl)phenyl]methyl (2S)-2-[[(2S)-2-amino-3-methyl-butanoyl]amino]-3-methyl-butanoate]: 5000 µg/mL (≈ 6.28 mM); for `Cc1ccc(NC(=O)[C@H]2CCCN(C(=O)c3c(C)cccc3F)[C@H]2c2ccc(N(C(=O)CNC(=O)[C@@H](N)CCCN)C3CCCC3)cc2)cc1C(F)(F)F` [Example 6, (2R,3S)-2-[4-[cyclopentyl-[2-[[(2S)-2,5-diaminopentanoyl]amino]acetyl]amino]phenyl]-1-(2-fluoro-6-methyl-benzoyl)-N-[4-methyl-3-(trifluoromethyl)phenyl]piperidine-3-carboxamide dihydrochloride]: 5000 µg/mL; for `Cc1cccc(F)c1C(=O)N1CCC[C@H](C(=O)Nc2ccc(COC(=O)C(N)C(C)C)c(C(F)(F)F)c2)[C@@H]1c1ccc(NC2CCCC2)cc1` (stereo in doubt) [Example 17, [4-[[(2R,3S)-2-[4-(cyclopentylamino)phenyl]-1-(2-fluoro-6-methyl-benzoyl)piperidine-3-carbonyl]amino]-2-(trifluoromethyl)phenyl]methyl (2R)-2-amino-3-methyl-butanoate]: 4000 µg/mL (≈ 5.74 mM).

For the compound `Cc1cccc(F)c1C(=O)N1CCC[C@H](C(=O)Nc2ccc(COC(=O)c3cccc(CN4CCN(C)CC4)c3)c(C(F)(F)F)c2)[C@@H]1c1ccc(NC2CCCC2)cc1` [Example 23, [4-[[(2R,3S)-2-[4-(cyclopentylamino)phenyl]-1-(2-fluoro-6-methyl-benzoyl)piperidine-3-carbonyl]amino]-2-(trifluoromethyl)phenyl]methyl 3-[(4-methylpiperazin-1-yl)methyl]benzoate], in series [1], the solubility was more than 1000 µg/mL.

Turning to `Cc1cccc(F)c1C(=O)N1CCC[C@H](C(=O)Nc2ccc(COC(=O)[C@H](C)N)c(C(F)(F)F)c2)[C@@H]1c1ccc(NC2CCCC2)cc1` [Example 18, [4-[[(2R,3S)-2-[4-(cyclopentylamino)phenyl]-1-(2-fluoro-6-methyl-benzoyl)piperidine-3-carbonyl]amino]-2-(trifluoromethyl)phenyl]methyl (2S)-2-aminopropanoate], the solubility in series [1] was more than 5000 µg/mL. The compound `Cc1ccc(NC(=O)[C@H]2CCCN(C(=O)c3c(C)cccc3F)[C@H]2c2ccc(NC3CCCC3)cc2)cc1C(F)(F)F` returned a solubility in the series “physchem” of 0.053 µg/mL (≈ 9.11e-05 mM). Consider `Cc1cccc(F)c1C(=O)N1CCC[C@H](C(=O)Nc2ccc(CO)c(C(F)(F)F)c2)[C@@H]1c1ccc(NC2CCCC2)cc1`, for which the solubility at 3 h in series [2] is 1.2 ± 0.2 µg/mL (≈ 0.00201 mM). With `Cc1cccc(F)c1C(=O)N1CCC[C@H](C(=O)Nc2ccc(COC(=O)CNC(=O)[C@@H](N)C(C)C)c(C(F)(F)F)c2)[C@@H]1c1ccc(NC2CCCC2)cc1` [Example 14, [4-[[(2R,3S)-2-[4-(cyclopentylamino)phenyl]-1-(2-fluoro-6-methyl-benzoyl)piperidine-3-carbonyl]amino]-2-(trifluoromethyl)phenyl]methyl 2-[[(2S)-2-amino-3-methyl-butanoyl]amino]acetate], the solubility in series [1] is 5000 µg/mL (≈ 6.63 mM). For the compound `Cc1ccc(NC(=O)[C@H]2CCCN(C(=O)c3c(C)cccc3F)[C@H]2c2ccc(N(C(=O)CNC(=O)CN)C3CCCC3)cc2)cc1C(F)(F)F` [Example 5, (2R,3S)-2-[4-[[2-[(2-aminoacetyl)amino]acetyl]-cyclopentyl-amino]phenyl]-1-(2-fluoro-6-methyl-benzoyl)-N-[4-methyl-3-(trifluoromethyl)phenyl]piperidine-3-carboxamide], in series [1], the solubility is 10000 µg/mL (≈ 14.4 mM). On the same count and under the same terms, the same measure for `Cc1ccc(NC(=O)[C@H]2CCCN(C(=O)c3c(C)cccc3F)[C@H]2c2ccc(N(C(=O)CN(C)C)C3CCCC3)cc2)cc1C(F)(F)F` [Example 1, (2R,3S)-2-[4-[cyclopentyl-[2-(dimethylamino)acetyl]amino]phenyl]-1-(2-fluoro-6-methyl-benzoyl)-N-[4-methyl-3-(trifluoromethyl)phenyl]piperidine-3-carboxamide]: more than 10000 µg/mL; for `Cc1ccc(NC(=O)[C@H]2CCCN(C(=O)c3c(C)cccc3F)[C@H]2c2ccc(N(C(=O)CN)C3CCCC3)cc2)cc1C(F)(F)F` [Example 2, (2R,3S)-2-[4-[(2-aminoacetyl)-cyclopentyl-amino]phenyl]-1-(2-fluoro-6-methyl-benzoyl)-N-[4-methyl-3-(trifluoromethyl)phenyl]piperidine-3-carboxamide]: more than 5000 µg/mL. Same read-out and setting: the same measure for `Cc1ccc(NC(=O)[C@H]2CCCN(C(=O)c3c(C)cccc3F)[C@H]2c2ccc(N(C3CCCC3)P(=O)(O)OC(=O)C(C)C)cc2)cc1C(F)(F)F` [Example 4, N-cyclopentyl-N-[4-[(2R,3S)-1-(2-fluoro-6-methyl-benzoyl)-3-[[4-methyl-3 (trifluoromethyl)phenyl]carbamoyl]-2-piperidyl]phenyl]-(2-methylpropanoyloxy)phosphonamidic acid]: 1000 µg/mL (≈ 1.37 mM); for `Cc1ccc(N(COP(=O)(O)O)C(=O)[C@H]2CCCN(C(=O)c3c(C)cccc3F)[C@H]2c2ccc(NC3CCCC3)cc2)cc1C(F)(F)F` [Example 11, [N-[(2R,3S)-2-[4-(cyclopentylamino)phenyl]-1-(2-fluoro-6-methyl-benzoyl)piperidine-3-carbonyl]-4-methyl-3-(trifluoromethyl)anilino]methyl dihydrogen phosphate]: more than 5000 µg/mL; for `Cc1cccc(F)c1C(=O)N1CCC[C@H](C(=O)Nc2ccc(COC(=O)[C@@H](NC(=O)CN)C(C)C)c(C(F)(F)F)c2)[C@@H]1c1ccc(NC2CCCC2)cc1` [Example 15, [4-[[(2R,3S)-2-[4-(cyclopentylamino)phenyl]-1-(2-fluoro-6-methyl-benzoyl)piperidine-3-carbonyl]amino]-2-(trifluoromethyl)phenyl]methyl (2S)-2-[(2-aminoacetyl)amino]-3-methyl-butanoate]: 5000 µg/mL (≈ 6.63 mM). Consider `Cc1cccc(F)c1C(=O)N1CCC[C@H](C(=O)Nc2ccc(COC(=O)CNC(=O)CN)c(C(F)(F)F)c2)[C@@H]1c1ccc(NC2CCCC2)cc1` [Example 13], for which the solubility in series [1] turned out to be 10000 µg/mL (≈ 14 mM). For the compound `Cc1cccc(F)c1C(=O)N1CCC[C@H](C(=O)Nc2ccc(COC(=O)CN)c(C(F)(F)F)c2)[C@@H]1c1ccc(NC2CCCC2)cc1` [Example 20, [4-[[(2R,3S)-2-[4-(cyclopentylamino)phenyl]-1-(2-fluoro-6-methyl-benzoyl)piperidine-3-carbonyl]amino]-2-(trifluoromethyl)phenyl]methyl 2-aminoacetate], in series [1], the solubility was more than 10000 µg/mL. On the same count and under the same terms, in the case of `Cc1ccc(NC(=O)[C@H]2CCCN(C(=O)c3c(C)cccc3F)[C@H]2c2ccc(N(C(=O)OCOC(=O)[C@@H](N)C(C)C)C3CCCC3)cc2)cc1C(F)(F)F` [Example 7, [cyclopentyl-[4-[(2R,3S)-1-(2-fluoro-6-methyl-benzoyl)-3-[[4-methyl-3-(trifluoromethyl)phenyl]carbamoyl]-2-piperidyl]phenyl]carbamoyl]oxymethyl (2S)-2-amino-3-methyl-butanoate] it was 1000 to 2000 µg/mL (≈ 1.32 to 2.65 mM).
